From patent US7691855B2, “Phenyl-[4-(3-phenyl-1h-pyrazol-4-yl)-pyrimidin-2-yl)-amine derivatives” (Novartis AG, priority 2002, dated 2010)

First: COc1cc(Nc2nccc(-c3c[nH]nc3-c3ccc(Cl)cc3)n2)cc(OC)c1OC [Example 67, {4-[3-(4-Chloro-phenyl)-1H-pyrazol-4-yl]-pyrimidin-2-yl}-(3,4,5-trimethoxy-phenyl)-amine]
Second: COc1cc(Nc2nccc(-c3c[nH]nc3-c3ccccc3Cl)n2)cc(OC)c1OC [Example 53, {4-[3-(2-Chloro-phenyl)-1H-pyrazol-4-yl]-pyrimidin-2-yl}-(3,4,5-trimethoxy-phenyl)-amine]
The melting point of the first is higher: 271 °C for the first, 257.5 °C for the second.

Compared with `COc1cc(OC)cc(-c2n[nH]cc2-c2ccnc(Nc3cccc(S(N)(=O)=O)c3)n2)c1` [Example 113, 3-{4-[3-(3,5-Dimethoxy-phenyl)-1H-pyrazol-4-yl]-pyrimidin-2-ylamino}-benzenesulfonamide], `COc1cccc(Nc2nccc(-c3c[nH]nc3-c3ccc(Cl)cc3)n2)c1` [Example 69, {4-[3-(4-Chloro-phenyl)-1H-pyrazol-4-yl]-pyrimidin-2-yl}-(3-methoxy-phenyl)-amine] is higher in melting point: 257 °C for the first, 261 °C for the second.

Going from `CN1CCN(Cc2ccc(Nc3nccc(-c4cn(C)nc4-c4ccc(Cl)cc4)n3)cc2)CC1` [Example 78, {4-[3-(4-Chloro-phenyl)-1-methyl-1H-pyrazol-4yl]-pyrimidin-2-yl}-[4-(4-methyl-piperazin-1-ylmethyl)-phenyl]-amine] to `CN1CCN(Cc2ccc(Nc3nccc(-c4cnn(C)c4-c4ccc(Cl)cc4)n3)cc2)CC1` [Example 79, {4-[5-(4Chloro-phenyl)-1-methyl-1H-pyrazol-4-yl]-pyrimidin-2-yl}-[4-(4-methyl-piperazin-1-ylmethyl)-phenyl]-amine], the melting point rises from 166 °C to 186 °C.

First: COc1cccc(Nc2nccc(-c3cnn(CC4CCN(C)CC4)c3-c3ccc(Cl)cc3)n2)c1 [Example 108, {4-[5-(4-Chloro-phenyl)-1-(1-methyl-piperidin-4-ylmethyl)-1H-pyrazol-4-yl]-pyrimidin-2-yl}-(3-methoxy-phenyl)-amine]
Second: COc1cccc(Nc2nccc(-c3cnn(CCN(C)C)c3-c3ccc(Cl)cc3)n2)c1 [Example 75, {-4-[5-(4Chloro-phenyl)-1-(2-dimethylamino-ethyl)-1H-pyrazol-4-yl]-pyrimidin-2-yl}-(3-methoxy-phenyl)-amine]
The melting point of the first is higher: 180 °C for the first, 118 °C for the second.

First: COc1ccc(Nc2nccc(-c3cnn(CCN(C)C)c3-c3ccc(Cl)cc3)n2)cc1OC [Example 73, {4-[5-(4-Chloro-phenyl)-1-(2-dimethylamino-ethyl)-1H-pyrazol-4-yl]-pyrimidin-2-yl}-(3,4-dimethoxy-phenyl)-amine]
Second: COc1cc(Nc2nccc(-c3cnn(CCN(C)C)c3-c3ccc(Cl)cc3)n2)cc(OC)c1OC [Example 71, {4-[5-(4-Chloro-phenyl)-1-(2-dimethylamino-ethyl)-1H-pyrazol-4-yl]-pyrimidin-2-yl}-(3,4,5-trimethoxy-phenyl)-amine]
The melting point of the first is higher: 157 °C for the first, 153 °C for the second.

Compared with `Cc1ccc(-c2n[nH]cc2-c2ccnc(Nc3ccc(CN4CCN(CCO)CC4)cc3)n2)cc1` [Example 111, 2-(4-{4-[4-(3-p-Tolyl-1H-pyrazol-4yl)-pyrimidin-2-ylamino]-benzyl}piperazin-1-yl)-ethanol], `CCN1CCN(Cc2ccc(Nc3nccc(-c4c[nH]nc4-c4ccccc4)n3)cc2)CC1` [Example 115, [4-(4-Ethyl-piperazin-1-ylmethyl)-phenyl]-[4-(3-phenyl-1H-pyrazol-4-yl)-pyrimidin-2-yl]-amine] is lower in melting point: 233 °C for the first, 227 °C for the second.

Compared with `Cc1ccc(-c2c(-c3ccnc(Nc4ccc(CN5CCN(C)CC5)cc4)n3)cnn2CCN(C)C)cc1` [Example 82, {4-[1-(2-Dimethylamino-ethyl)-5-p-tolyl-1H-pyrazol-4-yl]-pyrimidin-2-yl}-[4-(4 methyl-piperazin-1-ylmethyl)-phenyl]-amine], `CN(C)CCn1ncc(-c2ccnc(Nc3ccc(CN4CCN(C)CC4)cc3)n2)c1-c1ccc(Cl)cc1` [Example 77, {4-[5-(4-Chloro-phenyl)-1-(2-dimethylamino-ethyl)-1H-pyrazol-4yl]-pyrimidin-2-yl}-[4-(4-methyl-piperazin-1-ylmethyl)-phenyl]-amine] is higher in melting point: 123 °C for the first, 159 °C for the second.

First: Cc1ccc(-c2nn(CCN(C)C)cc2-c2ccnc(Nc3ccc(CN4CCN(C)CC4)cc3)n2)cc1 [Example 83, {4-[1-(2-Dimethylamino-ethyl)-3-p-tolyl-1H-pyrazol-4-yl]-pyrimidin-2-yl}-[4-(4-methyl-piperazin-1-ylmethyl)-phenyl]-amine]
Second: Cc1ccc(-c2nn(CCN(C)C)cc2-c2ccnc(Nc3ccc(N4CCN(C)CC4)cc3)n2)cc1 [Example 55, {4-[1-(2-Dimethylamino-ethyl)-3-p-tolyl-1H-pyrazol-4-yl]-pyrimidin-2-yl}-[4-(4-methyl-piperazin-1-yl)-phenyl]-amine]
The melting point of the first is lower: 62 °C for the first, 174 °C for the second.

Compared with `CN1CCN(c2ccc(Nc3nccc(-c4c[nH]nc4-c4ccccc4Cl)n3)cc2)CC1` [Example 52, {4-[3-(2-Chloro-phenyl)-1H-pyrazol-4-yl]-pyrimidin-2-yl}-[4-(4-methyl-piperazin-1-yl)-phenyl]-amine], `Cc1ccc(-c2nn(C)cc2-c2ccnc(Nc3ccc(N4CCN(C)CC4)cc3)n2)cc1` [Example 64, [4-(4-Methyl-piperazin-1-yl)-phenyl]-[4-(1-methyl-3-p-tolyl-1H-pyrazol-4-yl)-pyrimidin-2-yl]-amine] is lower in melting point: 310 °C for the first, 203 °C for the second.

First: Cc1ccc(-c2nn(C3CCN(C)CC3)cc2-c2ccnc(Nc3ccc(CN4CCN(C)CC4)cc3)n2)cc1 [Example 85, [4-(4-Methyl-piperazin-1-ylmethyl)-phenyl]-{4-[1-(1-methyl-piperidin-4-yl)-3-p-tolyl-1H-pyrazol-4-yl]-pyrimidin-2-yl}-amine]
Second: CN1CCC(n2cc(-c3ccnc(Nc4ccc(CN5CCN(C)CC5)cc4)n3)c(-c3ccc(Cl)cc3)n2)CC1 [Example 80, {4-[3-(4-Chloro-phenyl)-1-(1-methyl-piperidin-4-yl)-1H-pyrazol-4yl]-pyrimidin-2-yl}-[4-(4-methyl-piperazin-1-yl-methyl)-phenyl]-amine]
The melting point of the first is higher: 174 °C for the first, 164 °C for the second.

Compared with `CC1(C)CC(NCc2ccc(Nc3nccc(-c4c[nH]nc4-c4ccccc4)n3)cc2)CC(C)(C)N1` [Example 120, [4(3-Phenyl-1H-pyrazol-4-yl)-pyrimidin-2-yl]-{4[(2,2,6,6-tetramethyl-piperidin-4-ylamino)-methyl]-phenyl}-amine], `Cc1ccc(-c2n[nH]cc2-c2ccnc(Nc3ccc(C(=O)O)cc3)n2)cc1` [Example 58, 4-[4-(3-p-Tolyl-1H-pyrazol-4-yl)-pyrimidin-2-ylamino]-benzoic acid] is higher in melting point: 213 °C for the first, 341 °C for the second.

Compared with `Cc1ccc(-c2c(-c3ccnc(Nc4ccc(CN5CCN(C)CC5)cc4)n3)cnn2C2CCN(C)CC2)cc1` [Example 84, [4-(4-Methyl-piperazin-1-ylmethyl)-phenyl]-{4-[1-(1-methyl-piperidin-4-yl)-5-p-tolyl-1H-pyrazol-4-yl]-pyrimidin-2-yl}-amine], `Cc1ccc(-c2c(-c3ccnc(Nc4ccc(CN5CCN(C)CC5)cc4)n3)cnn2C)cc1` [Example 65, [4-(4-Methyl-piperazin-1-ylmethyl)-phenyl]-[4(1-methyl-5-p-tolyl-1H-pyrazol-4-yl)-pyrimidin-2-yl]-amine] is higher in melting point: 187 °C for the first, 192 °C for the second.

Compared with `COc1ccc(Nc2nccc(-c3cn(C)nc3-c3ccc(Cl)cc3Cl)n2)cc1OC` [Example 57, {4-[3-(2,4Dichloro-phenyl)-1-methyl-1H-pyrazol-4-yl]-pyrimidin-2-yl}-(3,4-dimethoxy-phenyl)-amine], `COc1ccc(Nc2nccc(-c3cnn(C)c3-c3ccc(Cl)cc3Cl)n2)cc1OC` [Example 56, {4-[5-(2,4-Dichloro-phenyl)-1-methyl-1H-pyrazol-4-yl]-pyrimidin-2-yl}-(3,4-dimethoxy-phenyl)-amine] is lower in melting point: 180 °C for the first, 157 °C for the second.

First: COc1cc(Nc2nccc(-c3c[nH]nc3-c3cccc(C)c3C)n2)cc(OC)c1OC [Example 51, {4-[3-(2,3-Dimethyl-phenyl)-1H-pyrazol-4-yl]-pyrimidin-2-yl}-(3,4,5-trimethoxy-phenyl)-amine]
Second: CN1CCN(Cc2ccc(Nc3nccc(-c4c[nH]nc4-c4cccc(C(F)(F)F)c4)n3)cc2)CC1 [Example 110, [4-(4-Methyl-piperazin-1-ylmethyl)-phenyl]-{4-[3-(3-trifluoromethyl-phenyl)-1H-pyrazol-4yl]-pyrimidin-2-yl}-amine]
The melting point of the first is higher: 249 °C for the first, 221 °C for the second.

First: Cc1ccc(-c2c(-c3ccnc(Nc4ccc(N5CCN(C)CC5)cc4)n3)cnn2CCN(C)C)cc1 [Example 54, {4-[1-(2-Dimethylamino-ethyl)-5-p-tolyl-1H-pyrazol-4-yl]-pyrimidin-2-yl}-[4-(4-methyl-piperazin-1-yl)-phenyl]-amine]
Second: CCN1CCN(Cc2ccc(Nc3nccc(-c4cnn(C)c4-c4ccc(C)cc4)n3)cc2)CC1 [Example 118, [4-(4-Ethyl-piperazin-1-ylmethyl)-phenyl]-[4-(1-methyl-5-p-tolyl-1H-pyrazol-4-yl)-pyrimidin-2-yl]-amine]
The melting point of the first is higher: 184 °C for the first, 82 °C for the second.
